We go through eleven compounds from patent US20080027079A1, “DIHYDROOROTATE DEHYDROGENASE INHIBITORS WITH SELECTIVE ANTI-MALARIAL ACTIVITY” (Board of Regents, University of Texas System, priority 2006, published 2008).

Assay [1] deals with human dihydroorotate dehydrogenase (hDHODH) (Homo sapiens, UniProt Q02127). The assay can be described thus: hDHODH enzyme inhibition (DCIP colorimetric or direct orotate assay). Format: biochemical. As to the method: (§1) Measurement of enzyme inhibition. For studying inhibition of Plasmodium or human DHODH enzyme, two assays that are in routine use are described, for example, in Baldwin, et al. (2002) J Biol Chem., 277, 41827-41834, and Baldwin, et al. (2005) J. Biol. Chem., 280. 21847-21853. Briefly, these assays are as follows: 1) A […] assay thay that monitors 2,6-dichloroindophenol (DCIP) reduction at 600 nm (e=18.8 mM^−1 cm^−1) is performed as either a continuous assay where absorbance is recorded over time. The assay solution containing 100 mM HEPES, pH 8.0, 150 mM NaCl, 10% glycerol, 0.05% Triton X-[…] CoQ0 (coenzyme QD), […] L-dihydroorotate, and […] DCIP. Reactions are initiated by addition of enzyme to a final concentration of 5-50 nM and the temperature is maintained at 25° C with a circulating water bath. 2) A direct assay that follows the production of orotic acid by measuring the absorbance change at 287 nm (ε=4.3 mM^−1 cm^−1); DCIP is not included, but all other components of the assay are as described in method one. Inhibitor stocks are prepared in DMSO, and the inhibitors, such as GR-34, are added to these assays over a concentration range that encompasses their IC50 value and, the IC50's are determined from a plot of reaction rate in the presence of inhibitor/reaction rate in the absence of inhibitor (vi/vo) versus inhibitor concentration (Eq. 1). [formula]

Assay [2] concerns the target T1, P. falciparum dihydroorotate dehydrogenase (pfDHODH) (Plasmodium falciparum, UniProt Q08210).
T1 sequence (Q08210 24-569): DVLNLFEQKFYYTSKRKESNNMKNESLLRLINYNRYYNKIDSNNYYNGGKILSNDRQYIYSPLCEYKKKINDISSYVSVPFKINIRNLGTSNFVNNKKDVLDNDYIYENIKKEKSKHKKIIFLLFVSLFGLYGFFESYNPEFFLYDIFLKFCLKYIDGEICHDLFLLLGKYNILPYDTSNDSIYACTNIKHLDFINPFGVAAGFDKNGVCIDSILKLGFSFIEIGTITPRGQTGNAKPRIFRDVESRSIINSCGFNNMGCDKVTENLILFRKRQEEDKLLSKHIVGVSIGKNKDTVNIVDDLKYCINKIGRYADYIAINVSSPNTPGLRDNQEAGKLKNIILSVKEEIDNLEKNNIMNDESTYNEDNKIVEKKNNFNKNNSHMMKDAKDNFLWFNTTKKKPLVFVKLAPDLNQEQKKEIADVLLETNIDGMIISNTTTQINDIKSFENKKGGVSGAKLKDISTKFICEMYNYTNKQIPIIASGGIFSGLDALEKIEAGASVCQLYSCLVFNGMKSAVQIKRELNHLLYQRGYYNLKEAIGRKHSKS
Nature of the assay: biochemical. As to the method:
as §1

A further assay concerns P. falciparum 3D7. The assay can be described thus: 3H-hypoxanthine uptake in P. falciparum-infected erythrocytes in culture (whole cell assay). To be noted: Plasmodium falciparum, Erythrocyte; 3D7 strain, in vitro. Format: cell-based. As for the experimental part:
In vitro evaluation of compound efficacy on the human malaria parasite, P. falciparum. To study inhibition of cell proliferation, ^3H-hypoxanthine uptake is measured in drug-treated, P. falciparum-infected erythrocytes grown in culture, pursuant to the methodology of Desjardins, et al. (1979) Antimicrobial Agents and Chemotherapy 16, 710-718, and Zhang and Rathod (2002) Science 296, 545-547.

Read-outs that look alike come from different tables or passages of the source. Some results are limits rather than exact numbers.

What is called IC50 is the concentration that inhibits the measured activity by half. The EC50 is the concentration that produces a half-maximal response.

human dihydroorotate dehydrogenase (hDHODH), sequence (Q02127 whole entry): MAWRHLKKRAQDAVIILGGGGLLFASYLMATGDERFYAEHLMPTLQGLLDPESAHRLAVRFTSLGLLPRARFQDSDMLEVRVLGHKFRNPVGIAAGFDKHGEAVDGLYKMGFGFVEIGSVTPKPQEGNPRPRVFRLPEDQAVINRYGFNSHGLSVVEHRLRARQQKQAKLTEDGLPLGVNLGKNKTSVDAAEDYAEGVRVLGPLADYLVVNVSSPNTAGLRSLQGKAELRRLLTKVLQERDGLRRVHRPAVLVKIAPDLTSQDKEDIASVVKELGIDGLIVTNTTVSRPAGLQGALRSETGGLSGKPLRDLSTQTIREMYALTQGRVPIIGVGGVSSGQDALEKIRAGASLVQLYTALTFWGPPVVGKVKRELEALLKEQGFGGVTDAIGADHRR

For `FC(F)(F)c1cc(Nc2ccc3ccccc3c2)n2ncnc2n1` [5-trifluoromethyl-N-(naphthalen-2-yl)-[1,2,4]triazolo[1,5-a]pyrimidin-7-amine], the results for the IC50 in assay [1] and in assay [2] (read-out: IC50 pf DHODH) were greater than 200000 nM and 126 nM, respectively.
On the same counts, the results for `Cc1cc(Nc2ccc3c(=O)ccoc3c2)n2ncnc2n1` [5-methyl-N-(4H-chromen-4-on-7-yl)-[1,2,4]triazolo[1,5-a]pyrimidin-7-amine] are greater than 200000 nM and 1900 nM.
On to `Cc1cc(Nc2cnc3ccccc3c2)n2ncnc2n1` [5-methyl-N-(quinolin-3-yl)-[1,2,4]triazolo[1,5-a]pyrimidin-7-amine], for which the IC50 is greater than 200000 nM in assay [1] and 2000 nM in assay [2] (read-out: IC50 pf DHODH).
In the assay on P. falciparum 3D7, `Cc1cc(Nc2cc3ccccc3cc2O)n2ncnc2n1` [5-methyl-N-(3-hydroxynaphthalen-2-yl)-[1,2,4]triazolo[1,5-a]pyrimidin-7-amine] showed an EC50 of 600 nM. In addition, in assay [2] (read-out: IC50 pf DHODH), the 50% inhibitory concentration (IC50) came to 2400 nM.
For `Cc1nc2ncnn2c(Nc2ccc3cc4ccccc4cc3c2)c1C` [N-(anthracen-2-yl)-5,6-dimethyl-[1,2,4]triazolo[1,5-a]pyrimidin-7-amine], the half-maximal inhibitory concentration (IC50) in assay [2] (read-out: IC50 pf DHODH) was 250 nM.
The same measure, in the same setting: the result for `CCc1cc(Nc2ccc3ccccc3c2)n2ncnc2n1` [5-ethyl-N-(naphthalen-2-yl)-[1,2,4]triazolo[1,5-a]pyrimidin-7-amine] reads 280 nM; that for `Cc1nc2ncnn2c(Nc2ccc3ccccc3c2)c1C` [5,6-dimethyl-N-(naphthalen-2-yl)-[1,2,4]triazolo[1,5-a]pyrimidin-7-amine], 130 nM.
As to `Cc1cc(Nc2ccc3ncccc3c2)n2ncnc2n1` [5-methyl-N-(quinolin-6-yl)-[1,2,4]triazolo[1,5-a]pyrimidin-7-amine], the half-maximal inhibitory concentration (IC50) in assay [1] was greater than 200000 nM; in assay [2], 1300 nM.
Regarding `Cc1cc(Nc2ccc3ccccc3c2)n2ncnc2n1` [5-methyl-N-(naphthalen-2-yl)-[1,2,4]triazolo[1,5-a]pyrimidin-7-amine], the EC50 in the assay on P. falciparum 3D7 is 50 nM. For the same compound, the concentration for half-maximal inhibition (IC50) in assay [1] is greater than 600000 nM.
As for `Cc1cc(Nc2ccc3cc4ccccc4cc3c2)n2ncnc2n1` [5-methyl-N-(anthracen-2-yl)-[1,2,4]triazolo[1,5-a]pyrimidin-7-amine], the EC50 in the assay with P. falciparum 3D7 came to 120 nM. Besides, the half-maximal inhibitory concentration (IC50) is greater than 200000 nM in assay [1] and 23 nM in assay [2] (read-out: IC50 pf DHODH).
In the case of `CCc1cc(Nc2ccc3cc4ccccc4cc3c2)n2ncnc2n1` [N-(anthracen-2-yl)-5-ethyl-[1,2,4]triazolo[1,5-a]pyrimidin-7-amine], the IC50 in assay [2] (read-out: IC50 pf DHODH) turned out to be 240 nM.
